In ChEMBL document CHEMBL3526078, “Pharmacokinetics and hepatic uptake of eltrombopag, a novel platelet-increasing agent” (Drug Metab Dispos, 2011):

Columns and labels:
[1] = Maximum plasma concentration in mouse at 1 mg/kg, iv; format: ADME, organism-based; parameters: dose 1 mg/kg, route intravenous
[2] = test system: Liver; assay: Drug uptake in mouse liver at 1 mg/kg, iv in presence of rifampicin OATP inhibitor; format: ADME, organism-based; parameters: dose 1 mg/kg, route intravenous; conditions: in vivo
[3] = Total clearance in wild-type mouse at 1 mg/kg, iv; format: ADME, organism-based; parameters: dose 1 mg/kg, route intravenous; conditions: in vivo
[4] = Total clearance in pdzk1(-/-) mouse at 1 mg/kg, iv; format: ADME, organism-based; parameters: dose 1 mg/kg, route intravenous; conditions: in vivo
[5] = biological target: T1, Solute carrier organic anion transporter family member 1B1 (Homo sapiens, UniProt Q9Y6L6); assay: Inhibition of OATP1B1-mediated [3H]estrone-3-sulfate uptake in human OATP1B1 expressing HEK293/PDZK1 cells by scintillation counting; format: ADME, cell-based
T1 sequence (Q9Y6L6 whole entry): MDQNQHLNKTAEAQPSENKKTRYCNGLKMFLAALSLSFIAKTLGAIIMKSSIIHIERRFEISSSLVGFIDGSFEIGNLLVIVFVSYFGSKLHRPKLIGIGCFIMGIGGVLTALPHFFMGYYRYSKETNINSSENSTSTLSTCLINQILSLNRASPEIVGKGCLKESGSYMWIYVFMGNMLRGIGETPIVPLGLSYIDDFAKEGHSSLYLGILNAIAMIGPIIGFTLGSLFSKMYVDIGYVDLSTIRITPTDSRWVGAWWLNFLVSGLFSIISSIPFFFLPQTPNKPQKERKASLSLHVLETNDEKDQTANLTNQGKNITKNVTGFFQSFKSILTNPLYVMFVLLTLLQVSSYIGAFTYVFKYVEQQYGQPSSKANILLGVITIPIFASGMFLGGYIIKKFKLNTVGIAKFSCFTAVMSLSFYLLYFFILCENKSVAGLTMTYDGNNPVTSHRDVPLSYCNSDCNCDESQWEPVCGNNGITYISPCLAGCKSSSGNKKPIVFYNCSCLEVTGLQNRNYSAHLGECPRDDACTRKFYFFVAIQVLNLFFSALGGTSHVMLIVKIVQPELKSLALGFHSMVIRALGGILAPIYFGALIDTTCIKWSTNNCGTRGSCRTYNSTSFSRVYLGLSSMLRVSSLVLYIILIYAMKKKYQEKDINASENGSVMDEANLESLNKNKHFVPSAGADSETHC

[6] = biological target: T2, Solute carrier organic anion transporter family member 2B1 (Homo sapiens, UniProt O94956); assay: Inhibition of OATP2B1-mediated [3H]estrone-3-sulfate uptake in human OATP2B1 expressing HEK293/PDZK1 cells by scintillation counting; format: ADME, cell-based
T2 sequence (O94956 whole entry): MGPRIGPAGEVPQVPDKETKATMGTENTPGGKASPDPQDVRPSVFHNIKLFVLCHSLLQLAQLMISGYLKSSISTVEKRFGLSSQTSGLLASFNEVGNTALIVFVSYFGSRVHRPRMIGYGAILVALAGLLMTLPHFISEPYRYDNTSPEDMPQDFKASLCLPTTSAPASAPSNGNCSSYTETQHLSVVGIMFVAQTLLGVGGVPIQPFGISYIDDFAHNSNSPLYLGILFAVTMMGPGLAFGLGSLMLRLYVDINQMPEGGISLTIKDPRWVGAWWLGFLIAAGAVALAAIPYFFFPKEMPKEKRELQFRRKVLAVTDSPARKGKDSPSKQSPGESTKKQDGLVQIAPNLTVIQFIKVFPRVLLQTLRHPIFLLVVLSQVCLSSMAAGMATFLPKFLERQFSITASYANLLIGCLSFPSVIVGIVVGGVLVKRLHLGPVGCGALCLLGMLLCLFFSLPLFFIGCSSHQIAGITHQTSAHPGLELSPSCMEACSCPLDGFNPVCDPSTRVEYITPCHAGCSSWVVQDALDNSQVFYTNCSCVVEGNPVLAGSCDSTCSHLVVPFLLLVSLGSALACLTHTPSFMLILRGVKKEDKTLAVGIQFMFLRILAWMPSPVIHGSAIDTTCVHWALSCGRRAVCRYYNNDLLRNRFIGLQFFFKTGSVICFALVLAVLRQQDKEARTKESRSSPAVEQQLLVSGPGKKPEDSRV

[7] = biological target: T3, Solute carrier organic anion transporter family member 1B3 (Homo sapiens, UniProt Q9NPD5); assay: Inhibition of OATP1B3-mediated [3H]estradiol 17beta-glucuronide uptake in human OATP1B3 expressing HEK293/PDZK1 cells by scintillation counting; format: ADME, cell-based
T3 sequence (Q9NPD5 whole entry): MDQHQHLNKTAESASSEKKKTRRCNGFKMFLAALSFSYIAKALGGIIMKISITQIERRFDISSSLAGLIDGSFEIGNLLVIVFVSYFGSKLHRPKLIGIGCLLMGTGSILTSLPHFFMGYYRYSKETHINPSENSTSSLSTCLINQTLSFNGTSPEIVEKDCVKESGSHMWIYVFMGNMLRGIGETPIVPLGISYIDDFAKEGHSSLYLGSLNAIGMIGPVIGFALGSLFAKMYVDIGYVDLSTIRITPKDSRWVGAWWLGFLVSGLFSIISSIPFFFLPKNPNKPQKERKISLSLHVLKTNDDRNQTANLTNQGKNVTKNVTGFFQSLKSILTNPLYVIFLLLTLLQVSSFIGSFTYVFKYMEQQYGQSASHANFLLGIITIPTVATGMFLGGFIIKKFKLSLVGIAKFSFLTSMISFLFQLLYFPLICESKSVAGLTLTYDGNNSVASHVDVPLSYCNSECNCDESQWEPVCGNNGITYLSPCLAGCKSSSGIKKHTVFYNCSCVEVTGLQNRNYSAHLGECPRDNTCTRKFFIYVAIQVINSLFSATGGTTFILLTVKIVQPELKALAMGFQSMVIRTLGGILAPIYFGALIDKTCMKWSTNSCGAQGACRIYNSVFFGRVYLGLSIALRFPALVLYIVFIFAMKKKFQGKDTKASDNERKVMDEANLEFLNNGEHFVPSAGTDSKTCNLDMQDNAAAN

[8] = biological target: T4, Solute carrier family 22 member 1 (Homo sapiens, UniProt O15245); assay: Inhibition of OCT1-mediated [14C]tetraethylammonium uptake in human OCT1 expressing HEK293/PDZK1 cells by scintillation counting; format: ADME, cell-based
T4 sequence (O15245 whole entry): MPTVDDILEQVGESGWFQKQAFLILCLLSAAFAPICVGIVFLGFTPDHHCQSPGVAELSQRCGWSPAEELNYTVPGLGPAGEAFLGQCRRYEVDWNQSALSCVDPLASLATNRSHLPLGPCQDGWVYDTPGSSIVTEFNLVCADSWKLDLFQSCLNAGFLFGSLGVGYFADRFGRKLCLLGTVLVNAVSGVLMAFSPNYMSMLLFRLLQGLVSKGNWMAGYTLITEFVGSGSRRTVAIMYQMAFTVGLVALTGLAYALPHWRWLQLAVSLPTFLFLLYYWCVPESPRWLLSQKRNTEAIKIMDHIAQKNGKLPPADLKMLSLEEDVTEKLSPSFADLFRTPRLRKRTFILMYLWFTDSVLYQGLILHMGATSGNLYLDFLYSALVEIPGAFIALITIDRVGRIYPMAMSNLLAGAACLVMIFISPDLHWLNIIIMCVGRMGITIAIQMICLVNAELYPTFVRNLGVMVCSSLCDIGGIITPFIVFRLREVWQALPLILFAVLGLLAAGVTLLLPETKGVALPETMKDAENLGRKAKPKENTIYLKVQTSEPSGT

[9] = biological target: T5, Organic cation/carnitine transporter 2 (Homo sapiens, UniProt O76082); assay: Inhibition of OCTN2-mediated [14C]carnitine uptake in human OCTN2 expressing HEK293/PDZK1 cells by scintillation counting; format: cell-based
T5 sequence (O76082 whole entry): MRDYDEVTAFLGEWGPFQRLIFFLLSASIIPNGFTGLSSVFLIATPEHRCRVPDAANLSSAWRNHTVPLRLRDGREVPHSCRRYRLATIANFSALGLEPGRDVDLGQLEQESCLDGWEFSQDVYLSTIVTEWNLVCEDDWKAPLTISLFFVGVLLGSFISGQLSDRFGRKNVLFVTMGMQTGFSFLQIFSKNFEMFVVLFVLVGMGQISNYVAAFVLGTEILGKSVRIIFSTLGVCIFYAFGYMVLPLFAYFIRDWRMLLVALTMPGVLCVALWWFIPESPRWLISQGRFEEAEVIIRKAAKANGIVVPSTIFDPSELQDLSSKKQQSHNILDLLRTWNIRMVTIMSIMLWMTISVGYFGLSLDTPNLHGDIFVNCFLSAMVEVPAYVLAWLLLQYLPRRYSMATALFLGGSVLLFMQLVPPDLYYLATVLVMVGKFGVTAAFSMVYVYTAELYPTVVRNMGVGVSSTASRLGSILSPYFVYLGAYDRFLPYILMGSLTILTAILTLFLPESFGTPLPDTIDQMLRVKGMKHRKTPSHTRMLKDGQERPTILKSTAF

[10] = Drug metabolism in human feces assessed as oxidized metabolites at 50 mg, po single dose; format: ADME, organism-based; conditions: in vivo
[11] = Drug metabolism in human urine assessed as oxidized metabolites at 50 mg, po single dose; format: ADME, organism-based; conditions: in vivo
[12] = Drug excretion in Sprague-Dawley rat bile assessed as unchanged compound level at 1 mg/kg, iv for 72 hrs; format: ADME, organism-based; parameters: dose 1 mg/kg, route intravenous; conditions: read-out: Drug excretion
[13] = Drug excretion in Sprague-Dawley rat urine assessed as unchanged compound level at 1 mg/kg, iv for 72 hrs; format: ADME, organism-based; parameters: dose 1 mg/kg, route intravenous; conditions: read-out: Drug excretion
[14] = Total clearance in bile duct cannulated Sprague-Dawley rat at 1 mg/kg, iv; format: ADME, organism-based; parameters: dose 1 mg/kg, route intravenous; conditions: in vivo
[15] = test system: Liver; assay: Drug uptake in mouse liver at 1 mg/kg, iv in presence of 30 umol/kg TPeA; format: ADME, organism-based; parameters: dose 1 mg/kg, route intravenous; conditions: in vivo
[16] = test system: Liver; assay: Tissue uptake clearance in bile duct cannulated Sprague-Dawley rat liver at 1 mg/kg, iv by integration plot analysis; format: ADME, organism-based; parameters: dose 1 mg/kg, route intravenous; conditions: in vivo
[17] = test system: Kidney; assay: Drug uptake in mouse kidney at 1 mg/kg, iv in presence of 20 mg/kg OATP inhibitor rifampicin; format: ADME, organism-based; conditions: in vivo
[18] = test system: Kidney; assay: Drug uptake in mouse kidney at 1 mg/kg, iv in presence of 30 umol/kg TPeA; format: ADME, organism-based; parameters: dose 1 mg/kg, route intravenous; conditions: in vivo
[19] = test system: Liver; conditions: rat, in vivo, iv, 1 mg/kg

With `CC1=NN(c2ccc(C)c(C)c2)C(=O)/C1=N\Nc1cccc(-c2cccc(C(=O)O)c2)c1O` [ELTROMBOPAG] as the compound, how does the Cmax [1] read?
Its Cmax is 40 µM.

What about the Drug uptake [2] of the same compound?
Its Drug uptake is “Not Active”.

And the clearance [3]?
The clearance was 1.29 mL/min/kg.

And the clearance [4]?
The clearance was 0.92 mL/min/kg.

What about the Ki [5] of the same compound?
The Ki was 14.9 µM.

What about the “inhibition (INH)” value ([5]; human, hek293/pdzk1) of the same compound?
Its value is “Active”.

And the Ki [6]?
The Ki was 8.48 µM.

What about the “inhibition (INH)” value ([6]; human, hek293/pdzk1) of the same compound?
Its value is “Active”.

And the Ki [7]?
Its Ki is 25.6 µM.

And the “inhibition (INH)” value ([7]; human, hek293/pdzk1)?
Its value is “Active”.

And the Ki [8]?
The Ki was 103 µM.

What about the “inhibition (INH)” value ([8]; human, hek293/pdzk1) of the same compound?
Its value is “Active”.

And the “inhibition (INH)” value [9]?
The value was “Not Active”.

What about the Drug excretion [10] of the same compound?
Its Drug excretion is 59%.

And the Drug excretion [11]?
Its Drug excretion is 31%.

What about the dose excreted at 72 h [12] of the same compound?
The dose excreted at 72 h was 40%.

What about the dose excreted at 72 h [13] of the same compound?
Its dose excreted at 72 h is under 0.02%.

What about the clearance [14] of the same compound?
The clearance was 0.572 mL/min/kg.

What about the Drug uptake [15] of the same compound?
Its Drug uptake is “Not Active”.

What about the CLup [16] of the same compound?
The CLup was 0.747 mL/min/kg.

And the Drug uptake [17]?
Its Drug uptake is “Active”.

What about the Drug uptake [18] of the same compound?
Its Drug uptake is “Active”.

What about the CLup [19] of the same compound?
The CLup was 0.38 mL/min/kg.
